According to ChEMBL document CHEMBL2203037, “Synthesis and Anti-influenza A Virus Activity of 2,2-Dialkylamantadines and Related Compounds” (ACS Med Chem Lett, 2012):
The source made the active and inactive calls. The rule behind the calls is not given here.

Legend:
Coxsackievirus B4 = assay: Antiviral activity against Coxsackievirus B4 by cell based assay; type: functional, organism-based
Punta Toro virus = assay: Antiviral activity against Punta Toro virus by cell based assay; type: functional, organism-based
H3N2 subtype [1] = assay: Antiviral activity against Influenza A virus (A/HK/7/87 (H3N2)) infected in MDCK cells assessed as virus-induced cytopathic effect measured 3 days post infection by microscopic analysis; type: functional, organism-based; settings: A/Hong Kong/7/1987(H3N2), 72 h
Simplexvirus = assay: Antiviral activity against Herpes simplex virus by cell based assay; type: functional, organism-based
Influenza A virus [2] = assay: Antiviral activity against Influenza A virus (A/X-31(H3N2)) infected in MDCK cells assessed as virus-induced cytopathic effect measured 3 days post infection by microscopic analysis; type: functional, organism-based; settings: Influenza A virus, MDCK, 72 h
Sindbis virus = assay: Antiviral activity against Sindbis virus by cell based assay; type: functional, organism-based
[3] = test system: Vesicular stomatitis virus; assay: Antiviral activity against Vesicular stomatitis virus by cell based assay; type: functional, organism-based
H3N2 subtype [4] = assay: Antiviral activity against Influenza A virus (A/HK/7/87 (H3N2)) infected in MDCK cells assessed as virus-induced cytopathic effect by MTS assay; type: functional, organism-based, A/Hong Kong/7/1987(H3N2); settings: mdck
[5] = test system: Mammalian orthoreovirus 1; assay: Antiviral activity against Reovirus-1 by cell based assay; type: functional, organism-based
[6] = Cytotoxicity against dog MDCK cells assessed as cell viability after 72 hrs by MTS assay; type: cell-based, Canis lupus familiaris
Influenza A virus [7] = assay: Antiviral activity against amantadine-sensitive Influenza A virus (A/FM/1/47 (H1N1)) infected in MDCK cells assessed as virus-induced cytopathic effect measured 3 days post infection by microscopic analysis; type: functional, organism-based; settings: A/Fort Monmouth/1/1947(H1N1), 72 h
Vaccinia virus = assay: Antiviral activity against Vaccinia virus by cell based assay; type: functional, organism-based; settings: Orthopoxvirus vaccinia
[8] = Cytotoxicity against dog MDCK cells assessed as cell morphology alterations; type: cell-based, Canis lupus familiaris
Feline coronavirus = assay: Antiviral activity against Feline coronavirus by cell based assay; type: functional, organism-based
Influenza A virus [9] = assay: Antiviral activity against Influenza A virus (A/Ishikawa/7/82 (H3N2)) infected in MDCK cells assessed as virus-induced cytopathic effect measured 3 days post infection by microscopic analysis; type: functional, organism-based; settings: Influenza A virus, A/Ishikawa/7/82 (H3N2), MDCK, 72 h
Influenza A virus [10] = assay: Antiviral activity against amantadine-sensitive Influenza A virus (A/Ned/378/05 (H1N1)) infected in MDCK cells assessed as virus-induced cytopathic effect measured 3 days post infection by microscopic analysis; type: functional, organism-based; settings: 72 h
Human respirovirus 3 = assay: Antiviral activity against Parainfluenza-3 virus by cell based assay; type: functional, organism-based
[11] = test system: Respiratory syncytial virus; assay: Antiviral activity against Respiratory syncytial virus by cell based assay; type: functional, organism-based

Row | SMILES | Activity (Coxsackievirus B4) | Activity (Punta Toro virus) | EC50 (H3N2 subtype [1]) [µM] | Activity (Simplexvirus) | EC50 (Influenza A virus [2]) [µM] | Activity (Sindbis virus) | Activity [3] | EC50 (H3N2 subtype [4]) [µM] | Activity [5] | CC50 at 72 h [6] [µM] | EC50 (Influenza A virus [7]) [µM] | Activity (Vaccinia virus) | MCC [8] [µM] | Activity (Feline coronavirus) | EC50 (Influenza A virus [9]) [µM] | EC50 (Influenza A virus [10]) [µM] | Activity (Human respirovirus 3) | Activity [11]
1 | CCC1(CC)C2CC3CC(C2)CC1(N(C)C)C3 | inactive | inactive | > 100 | inactive | > 100 | inactive | inactive | > 100 | inactive | > 100 | 43 | inactive | ≥ 100 | inactive | > 100 | 23 | inactive | inactive
2 | CCC1(CC)C2CC3CC(C2)CC1(NC)C3 | inactive | inactive | > 100 | inactive | > 100 | inactive | inactive | > 100 | inactive | > 100 | 9.3 | inactive | ≥ 100 | inactive | > 100 | 8.7 | inactive | inactive
